Experimental data from patent US20230348456A1, “QUINAZOLINONES, PHARMACEUTICAL COMPOSITIONS CONTAINING THE SAME, AND METHODS OF USING THE SAME” (Repare Therapeutics Inc., priority 2022, published 2023).

Each molecule was assayed against recombinant human Myt1 (Homo sapiens (Human), UniProt Q99640) (assay: Myt1 enzymatic assay (ADP-Glo kinase assay)). Conditions: recombinant human Myt1 18 nM, ATP 10 μM.
Chain of recombinant human Myt1 (Q99640 whole entry): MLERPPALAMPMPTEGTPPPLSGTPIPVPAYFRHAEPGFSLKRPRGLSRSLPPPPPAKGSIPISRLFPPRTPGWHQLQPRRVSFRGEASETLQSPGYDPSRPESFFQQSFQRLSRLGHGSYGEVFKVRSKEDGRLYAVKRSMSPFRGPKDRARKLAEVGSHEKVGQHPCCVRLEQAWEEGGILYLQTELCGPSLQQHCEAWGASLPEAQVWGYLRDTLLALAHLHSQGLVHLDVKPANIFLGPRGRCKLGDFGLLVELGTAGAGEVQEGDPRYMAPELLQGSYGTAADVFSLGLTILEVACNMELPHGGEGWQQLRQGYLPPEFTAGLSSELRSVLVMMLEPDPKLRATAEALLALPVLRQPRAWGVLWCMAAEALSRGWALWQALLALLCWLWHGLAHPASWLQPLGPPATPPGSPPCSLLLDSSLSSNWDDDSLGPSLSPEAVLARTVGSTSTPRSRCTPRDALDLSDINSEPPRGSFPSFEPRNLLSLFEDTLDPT
Type: biochemical
Method: Detection of Myt1 kinase activity utilized a recombinant human Myt1 kinase assay measuring the hydrolysis of ATP using a commercially available ADP-Glo Assay (ADP-Glo™ Kinase Assay from Promega, 10 000 assays, #V9102). Briefly, 5 μL recombinant human Myt1 (full length PKMYT1 recombinant human protein expressed in insect cells from Thermo Fisher #A33387; ˜80% purity) was prepared in reaction buffer (70 mM HEPES, 3 mM MgCl2, 3 mM MnCl2, 50 μg/ml PEG 20000, 3 μM Na-orthovanadate, 1.2 mM DTT) and added to 384 well white polystyrene, flat bottom well, non-treated, microplate (Corning #3572). After this, 5 μL of compounds (diluted in reaction buffer to 0.5% DMSO) was added to the microplate and the plate was spun briefly and incubated at 22° C. for 15 minutes. Ultra-Pure Adenosine Triphosphate (ATP) solution (ADP-Glo kit from Promega) was diluted in reaction buffer and 5 μL was added to the microplate, spun down briefly and incubated for 60 minutes at 30° C. The final Myt1 enzyme concentration was 18 nM and the final ATP concentration was 10 μM. After the 60-minute incubation, 15 μL of ADP-Glo reagent was added and the plate was spun briefly and sealed and incubated in the dark for 40 minutes at 22° C. Following this, 30 μL of kinase detection reagent was added per well and the plate was spun briefly, sealed and incubated for 45-60 minutes at 22° C. in the dark. Luminescence was read using the Envision (250 ms integration). The IC50 and the % max inhibition were calculated for each inhibitor compound tested.
`Cc1ccc(O)c(C)c1-c1cc(-c2cnn(C3CC3)c2)c2nc(-c3ccncc3)[nH]c(=O)c2c1N` (atropisomer, axis not shown) [Compound 27] was tested, and the IC50 was 2 nM.
In the case of `Cc1ccc(O)c(C)c1-c1cc(C2CC2)c2nc(-c3ccncc3)[nH]c(=O)c2c1N` (single isomer, unassigned) [Compound 22, 5-amino-8-cyclopropyl-6-(3-hydroxy-2,6-dimethyl-phenyl)-2-(4-pyridyl)-3H-quinazolin-4-one], the IC50 is reported as 3 nM.
`Nc1c(-c2cccc3[nH]ncc23)cc(-c2nccs2)c2nc(-c3ccccc3)[nH]c(=O)c12` [Compound 1, 5-amino-6-(1H-indazol-4-yl)-2-phenyl-8-(thiazol-2-yl)quinazolin-4(3H)-one] showed an IC50 of 4 nM.
For `Nc1c(-c2cccc3[nH]ncc23)cc(-c2nccs2)c2nc(-c3ccc(N4CCOCC4)nc3)[nH]c(=O)c12` [Compound 2], the IC50 was 15 nM.
`Cc1ccc(-c2nc3c(-c4nccs4)cc(-c4cccc5[nH]ncc45)c(N)c3c(=O)[nH]2)cc1` [Compound 3] was tested, and the IC50 was 33 nM.
`Nc1ccc(-c2nc3c(-c4nccs4)cc(-c4cccc5[nH]ncc45)c(N)c3c(=O)[nH]2)cn1` [Compound 4] gave an IC50 of 5 nM.
For `N#Cc1ccc(-c2nc3c(-c4nccs4)cc(-c4cccc5[nH]ncc45)c(N)c3c(=O)[nH]2)cc1` [Compound 5], the IC50 was 89 nM.
`Nc1c(-c2cccc3[nH]ncc23)cc(-c2nccs2)c2nc(-c3ccc(-c4ccccc4)cc3)[nH]c(=O)c12` [Compound 6] was tested, and the IC50 was greater than 2000 nM.
`Nc1c(-c2cccc3[nH]ncc23)cc(-c2nccs2)c2nc(C3CC3)[nH]c(=O)c12` [Compound 8] was tested, and the IC50 was 131 nM.
With `Cc1nc2c(-c3nccs3)cc(-c3cccc4[nH]ncc34)c(N)c2c(=O)[nH]1` [Compound 9] the IC50 was 47 nM.
For `Nc1c(-c2cccc3[nH]ncc23)cc(Br)c2nc(-c3ccc(N4CCNCC4)nc3)[nH]c(=O)c12` [Compound 10], the IC50 was 3 nM.
In the case of `Nc1c(-c2cccc3[nH]ncc23)cc(Br)c2nc(-c3ccc(N4CCN(C5CC5)C(=O)C4)nc3)[nH]c(=O)c12` [Compound 11], the IC50 is reported as 5 nM.
`CN(C)c1ccc(-c2nc3c(Br)cc(-c4cccc5[nH]ncc45)c(N)c3c(=O)[nH]2)cn1` [Compound 12] was tested, and the IC50 was 9 nM.
Molecule `Nc1c(-c2cccc3[nH]ncc23)cc(-c2nccs2)c2nc(C3CCOCC3)[nH]c(=O)c12` [Compound 13] has an IC50 of 1410 nM.
With `CS(=O)(=O)c1ccc(-c2nc3c(-c4nccs4)cc(-c4cccc5[nH]ncc45)c(N)c3c(=O)[nH]2)cc1` [Compound 14] the IC50 was 6 nM.
Molecule `Nc1c(-c2cccc3[nH]ncc23)cc(-c2nccs2)c2nc(-c3ccnc(N4CCOCC4)c3)[nH]c(=O)c12` [Compound 15, 5-amino-6-(1H-indazol-4-yl)-2-(2-morpholinopyridin-4-yl)-8-(thiazol-2-yl)quinazolin-4(3H)-one] has an IC50 of 10 nM.
`Nc1ccc(-c2nc3c(-c4nccs4)cc(-c4cccc5[nH]ncc45)c(N)c3c(=O)[nH]2)cc1` [Compound 16] was tested, and the IC50 was 54 nM.
In the case of `CC(=O)Nc1ccc(-c2nc3c(-c4nccs4)cc(-c4cccc5[nH]ncc45)c(N)c3c(=O)[nH]2)cc1` [Compound 17], the IC50 is reported as 78 nM.
In the case of `Nc1c(-c2cccc3[nH]ncc23)cc(-c2nccs2)c2nc(-c3cccc(N4CCOCC4)c3)[nH]c(=O)c12` [Compound 18], the IC50 is reported as 9 nM.
With `Nc1c(-c2cccc3[nH]ncc23)cc(Br)c2nc(-c3ccc(NC4CCOC4)nc3)[nH]c(=O)c12` (stereo not drawn) [Compound 19] the IC50 was 3 nM.
For `Cc1cccc(-c2nc3c(-c4nccs4)cc(-c4cccc5[nH]ncc45)c(N)c3c(=O)[nH]2)c1` [Compound 20], the IC50 was 10 nM.
`N#Cc1cccc(-c2nc3c(-c4nccs4)cc(-c4cccc5[nH]ncc45)c(N)c3c(=O)[nH]2)c1` [Compound 21] showed an IC50 of 6 nM.
Work on `Nc1c(-c2cccc3[nH]ncc23)cc(Br)c2nc(-c3ccc(NCCN4CCCC4)nc3)[nH]c(=O)c12` [Compound 23] yielded an IC50 of 4 nM.
Work on `CN1CCN(c2ccc(-c3nc4c(Br)cc(-c5cccc6[nH]ncc56)c(N)c4c(=O)[nH]3)cn2)CC1` [Compound 24] yielded an IC50 of 10 nM.
For `Nc1c(-c2cccc3[nH]ncc23)cc(Br)c2nc(-c3ccc(N4CCOCC4)nc3)[nH]c(=O)c12` [Compound 25, 5-amino-8-bromo-6-(1H-indazol-4-yl)-2-(6-morpholinopyridin-3-yl)quinazolin-4(3H)-one 2,2,2-trifluoroacetate], the IC50 was 23 nM.
In the case of `Nc1c(-c2cccc3[nH]ncc23)cc(Br)c2nc(-c3ccc(N4CCN(C5CC5)CC4)nc3)[nH]c(=O)c12` [Compound 26], the IC50 is reported as 5 nM.
Work on `Nc1c(-c2cccc3[nH]ncc23)cc(-c2nccs2)c2nc[nH]c(=O)c12` [Compound 28] yielded an IC50 of 4 nM.
Molecule `COCCNc1ccc(-c2nc3c(Br)cc(-c4cccc5[nH]ncc45)c(N)c3c(=O)[nH]2)cn1` [Compound 29] has an IC50 of 3 nM.
Molecule `Nc1c(-c2cccc3[nH]ncc23)cc(-c2nccs2)c2nc(-c3ccnc(N4CCNCC4)c3)[nH]c(=O)c12` [Compound 31] has an IC50 of 15 nM.
`Nc1c(-c2cccc3[nH]ncc23)cc(Br)c2nc(-c3ccc(N4CCC(C(=O)O)CC4)nc3)[nH]c(=O)c12` [Compound 32] was tested, and the IC50 was 6 nM.
`Nc1c(-c2cccc3[nH]ncc23)cc(-c2nccs2)c2nc(-c3ccncc3)[nH]c(=O)c12` [Compound 33] was tested, and the IC50 was 9 nM.
For `Nc1c(-c2cccc3[nH]ncc23)cc(Br)c2nc(-c3ccc(NC4COC4)nc3)[nH]c(=O)c12` [Compound 35], the IC50 was 29 nM.
`Nc1c(-c2cccc3[nH]ncc23)cc(Br)c2nc(-c3ccc(N4CCN(CCO)CC4)nc3)[nH]c(=O)c12` [Compound 36] gave an IC50 of 76 nM.
For `COCCNc1cc(-c2nc3c(Br)cc(-c4cccc5[nH]ncc45)c(N)c3c(=O)[nH]2)ccn1` [Compound 37], the IC50 was 11 nM.
`CN1CCN(c2cc(-c3nc4c(Br)cc(-c5cccc6[nH]ncc56)c(N)c4c(=O)[nH]3)ccn2)CC1` [Compound 38] was tested, and the IC50 was 10 nM.
With `Nc1c(-c2cccc3[nH]ncc23)cc(-c2nccs2)c2nc(-c3cccc(CN4CCOCC4)c3)[nH]c(=O)c12` [Compound 40] the IC50 was 18 nM.
For `Nc1c(-c2cccc3[nH]ncc23)cc(-c2nccs2)c2nc(-c3cccnn3)[nH]c(=O)c12` [Compound 41], the IC50 was 10 nM.
With `COCc1nc2c(-c3nccs3)cc(-c3cccc4[nH]ncc34)c(N)c2c(=O)[nH]1` [Compound 43] the IC50 was 20 nM.
In the case of `Nc1c(-c2cccc3[nH]ncc23)cc(Br)c2nc(-c3ccc(N4CCCCC4CO)nc3)[nH]c(=O)c12` (stereo not drawn) [Compound 44], the IC50 is reported as 11 nM.
Molecule `Nc1c(-c2cccc3[nH]ncc23)cc(Br)c2nc(-c3ccc(N4CCC(O)CC4)nc3)[nH]c(=O)c12` [Compound 45] has an IC50 of 18 nM.
Molecule `Nc1c(-c2cccc3[nH]ncc23)cc(-c2nccs2)c2nc(Cc3ccccc3)[nH]c(=O)c12` [Compound 46] has an IC50 greater than 2000 nM.
`CC1(O)CCN(c2ccc(-c3nc4c(Br)cc(-c5cccc6[nH]ncc56)c(N)c4c(=O)[nH]3)cn2)CC1` [Compound 47] was tested, and the IC50 was 11 nM.
With `Nc1c(-c2cccc3[nH]ncc23)cc(-c2ccc(F)cc2)c2nc[nH]c(=O)c12` [Compound 48, 5-amino-8-(4-fluorophenyl)-6-(1H-indazol-4-yl) quinazolin-4(3H)-one] the IC50 was 30 nM.
Work on `Nc1c(-c2cccc3[nH]ncc23)cc(-c2cccc(C(F)(F)F)c2)c2nc[nH]c(=O)c12` [Compound 49] yielded an IC50 of 990 nM.
Work on `Nc1c(-c2cccc3[nH]ncc23)cc(-c2cccc(OCCN3CCOCC3)n2)c2nc(-c3ccncc3)[nH]c(=O)c12` [Compound 50, 5-amino-6-(1H-indazol-4-yl)-8-[6-(2-morpholinoethoxy)-2-pyridyl]-2-(4-pyridyl)-3H-quinazolin-4-one] yielded an IC50 of 2 nM.
In the case of `Cc1ccc2[nH]ncc2c1-c1cc(-c2ccnnc2)c2c(c1N)C(=O)NC2` [Compound 51], the IC50 is reported as 1230 nM.
Work on `Nc1c(-c2cccc3[nH]ncc23)cc(-c2cccc(OCCN3CCOCC3)c2)c2nc(-c3ccncc3)[nH]c(=O)c12` [Compound 52] yielded an IC50 of 5 nM.
With `Nc1c(-c2cccc3[nH]ncc23)cc(-c2cccc(OCCN3CCCC3)n2)c2nc(-c3ccncc3)[nH]c(=O)c12` [Compound 54] the IC50 was 2 nM.
`Nc1c(-c2cccc3[nH]ncc23)cc(-c2cccc(OC[C@@H]3CCCO3)n2)c2nc(-c3ccncc3)[nH]c(=O)c12` [Compound 55] gave an IC50 of 4 nM.
`CN1CC=C(c2cc(-c3cccc4[nH]ncc34)c(N)c3c(=O)[nH]c(-c4ccncc4)nc23)CC1` [Compound 56] was tested, and the IC50 was 7 nM.
`CC(=O)N1CC=C(c2cc(-c3cccc4[nH]ncc34)c(N)c3c(=O)[nH]c(-c4ccncc4)nc23)CC1` [Compound 57] was tested, and the IC50 was 2 nM.
`Nc1c(-c2cccc3[nH]ncc23)cc(-c2cnn(C3COC3)c2)c2nc(-c3ccncc3)[nH]c(=O)c12` [Compound 58] gave an IC50 of 1 nM.
For `CN1CCC(n2cc(-c3cc(-c4cccc5[nH]ncc45)c(N)c4c(=O)[nH]c(-c5ccncc5)nc34)cn2)CC1` [Compound 60], the IC50 was 3 nM.
In the case of `Cn1ccc(-c2cc(-c3cccc4[nH]ncc34)c(N)c3c(=O)[nH]c(-c4ccncc4)nc23)n1` [Compound 61], the IC50 is reported as 2 nM.
With `Cc1ccc2[nH]ncc2c1-c1cc(-c2ccc(F)cn2)c2c(c1N)C(=O)NC2` [Compound 62] the IC50 was 539 nM.
Work on `Cc1ccc2[nH]ncc2c1-c1cc(-c2nccs2)c2c(c1N)C(=O)NC2` [Compound 63] yielded an IC50 of 16 nM.
`Nc1c(-c2cccc3[nH]ncc23)cc(C2=CCOCC2)c2nc(-c3ccncc3)[nH]c(=O)c12` [Compound 64] was tested, and the IC50 was 3 nM.
